Data on three molecules can be found in EP4721758A1, “NOVEL MEDICINE FOR TREATING OSTEOSARCOMA” (Japanese Foundation For Cancer Research, priority 2023, dated 2024).

Structures are written as SMILES.

The test system of assay [1] is osteosarcoma cells. The assay can be described thus: Inhibitor library drug screening, cell viability (CellTiter-Glo). It is filed as cell-based, human. The settings on record: nine osteosarcoma cell lines and two PDC, 72 hours, heatmap Fig. 1A. The procedure:
The nine human osteosarcoma cell lines (MG-63 cells, NY cells, HOS cells, HuO9 cells, HuO-3N1 cells, SJSA-1 cells, NOS-1 cells, NOS-10 cells, and G-292 clone A141B1 (G-292) cells) were purchased from the American Type Culture Collection, the RIKEN BioResource Research Center, or the Japanese Collection of Research Bioresources Cell Bank (JCRC) and used at lower passage numbers.
Specifically, • MG-63 cells, NY cells, and HOS cells were cultured in 96-well plates using MEM (Wako) comprising 10% FBS (CORNING), 1% non-essential amino acid solution (Wako), and 100 µ(micro)g/mL kanamycin (MEIJI), • HuO9 cells, HuO-3N1 cells, SJSA-1 cells, NOS-1 cells, and NOS-10 cells were cultured in 96-well plates using RPMI-1640 medium (Wako) comprising 10% FBS and 100 µ(micro)g/mL kanamycin. • G-292 clone A141B1 (G-292) cells were cultured in 96-well plate using McCoy's 5a medium comprising 10% FBS, • Sa-xeno-147 and Sa-xeno-184 cell lines were developed from patient-derived xenograft tumors and were cultured in collagen-coated dishes with RPMI 1640/Ham's F12 (1:1) medium comprising 15% FBS, 20 mM HEPES, and antibiotic-antimycotic solution (Sigma-Aldrich). Cells were cultured at 37°C and 5% CO2.
Cells were seeded in triplicate in 96-well plates (Greiner) or type I collagen-coated plates (IWAKI) at a density of 2000 cells/well and cultured for at least 24 h. After 72 hours of incubation with any of the 96 compounds of the library of the inhibitors, cells were incubated with CellTiter-Glo reagent (Promega) for 2 minutes on a Titramax 100 plate shaker (Heidolph), and after 10 minutes of equilibration, cell viability assays of each osteosarcoma cell were performed by measuring luminescence using a Tristar LB941 multimode microplate reader (Berthold Technologies). The cell viability was calculated as a ratio of the DMSO control to evaluate their effects on osteosarcoma cell proliferation (n=2).

The next assay concerns topoisomerase. To be noted: cited from earlier work.
A further assay concerns the target Mcl-1 (Homo sapiens, UniProt Q07820). The settings on record: cited from earlier work.
The test system of assay [2] is osteosarcoma cells. The assay is described as follows: Cell viability after 1 µM obatoclax or navitoclax (CellTiter-Glo). Format: cell-based, human. The settings on record: 72 hours, 11 types of osteosarcoma cells, Fig. 1B. The method, then: Among these five compounds, obatoclax, a pan-BH3 mimetic, was further investigated. Specifically, the osteosarcoma cells (the above described 11 types of osteosarcoma cells) were seeded in triplicate at a density of 2000 cells/well on 96-well plates (Greiner) or type I collagen-coated plates (IWAKI) and cultured for at least 24 hours. The osteosarcoma cells (i.e., the above described 11 types) were then treated with 1 µ(micro)M obatoclax for 72 hours, after which cell viability was measured using the CellTiter-Glo assay reagent.

Chain of Mcl-1 (Q07820 whole entry): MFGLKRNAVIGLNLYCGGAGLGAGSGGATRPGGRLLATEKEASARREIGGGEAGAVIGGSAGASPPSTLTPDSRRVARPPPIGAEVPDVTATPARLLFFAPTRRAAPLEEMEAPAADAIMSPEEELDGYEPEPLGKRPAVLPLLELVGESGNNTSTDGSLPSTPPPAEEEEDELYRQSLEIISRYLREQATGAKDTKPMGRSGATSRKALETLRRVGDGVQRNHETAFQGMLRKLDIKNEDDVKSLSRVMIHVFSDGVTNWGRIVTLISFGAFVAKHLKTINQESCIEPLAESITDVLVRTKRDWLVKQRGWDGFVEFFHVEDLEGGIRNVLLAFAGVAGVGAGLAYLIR

Regarding `CCc1c2c(nc3ccc(O)cc13)-c1cc3c(c(=O)n1C2)COC(=O)[C@]3(O)CC` [SN-38], in the assay on osteosarcoma cells [1], the “osteosarcoma cell proliferation (cell viability)” value is recorded as “extensive inhibition of osteosarcoma cell proliferation”. In the assay on topoisomerase, the “activity relative to irinotecan” value is given as 1000 times. For `Cc1nn(C)c(COc2ccc(N3CCN(S(=O)(=O)N(C)C)CC3)cc2)c1-c1cccc2c(CCCOc3cccc4ccccc34)c(C(=O)O)n(CCN3CCOCC3)c12` [A-1210477], the “selectivity than other Bcl-2 family members” value at Mcl-1 is listed as not below 100 fold. Consider `CC1(C)CCC(c2ccc(Cl)cc2)=C(CN2CCN(c3ccc(C(=O)NS(=O)(=O)c4ccc(N[C@H](CCN5CCOCC5)CSc5ccccc5)c(S(=O)(=O)C(F)(F)F)c4)cc3)CC2)C1` [navitoclax], for which the cell viability entry in the assay on osteosarcoma cells [2] is on record as “little effect on osteosarcoma cell proliferation”.
